The text below walks through data of ChEMBL document CHEMBL1201862, “PubChem BioAssay data set” (2004).

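A five-concentration, 48-hour dose response in 96-well plates underlies each endpoint, interpolated linearly between surrounding concentrations. Here, GI50 denotes the concentration required for 50% inhibition of growth.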 The source made the active and inactive calls. Rule as the data show it: active = GI50 up to about 1.1 µM and inactive = higher.

Test systems include SNB-75; EKVX; HOP-62; NCI-H522; 786-0; TK-10; NCI-H460; SF-268; CCRF-CEM; T47D; MCF7; MOLT-4; UACC-257; A549; MDA-MB-435; OVCAR-3; COLO 205; OVCAR-5; Malme-3M; NCI-H226.
Assay in all cases: NCI-60 cell line screen, 48 h

On to `Nc1ccc(-c2nc3ccccc3s2)cc1Br`, for which the GI50 in the assay with SNB-75 is 31.3 µM (inactive); in the assay on EKVX, 26.4 µM (inactive); in the assay with HOP-62, 29.9 µM (inactive); in the assay on NCI-H522, > 100 µM (inactive); with 786-0 it was 76.9 µM (inactive); in the assay on TK-10 it was 0.0141 µM (active). The GI50 was 4.31 µM (inactive) in the assay on NCI-H460; 61 µM (inactive) in the assay with SF-268; 32 µM (inactive) with CCRF-CEM; 58.1 µM (inactive) in the assay with T47D; < 0.01 µM (active) with MCF7; 31.4 µM (inactive) with MOLT-4. Also, the GI50 was > 100 µM (inactive) in the assay on UACC-257; > 100 µM (inactive) in the assay with A549; > 100 µM (inactive) in the assay with MDA-MB-435; < 0.01 µM (active) in the assay with OVCAR-3; > 100 µM (inactive) in the assay with COLO 205; 0.134 µM (active) in the assay with OVCAR-5. In the assay with Malme-3M, the GI50 was > 100 µM (inactive).
For the molecule `Cc1ccc(C2=NN=C3C(c4ccccc4)=Nc4ccccc4N3C2)cc1`, the GI50 with EKVX is 10.9 µM (inactive); in the assay on HOP-62 it was 9.98 µM (inactive); with NCI-H522, 2.92 µM (inactive); with 786-0, 6.56 µM (inactive); in the assay with TK-10, 0.348 µM (active); in the assay with NCI-H460 it was 3.56 µM (inactive). Moreover, the GI50 in the assay on SF-268 was 4.49 µM (inactive); with CCRF-CEM it was 1.88 µM (inactive); in the assay on T47D, 27.2 µM (inactive); in the assay with MCF7 it was 8.38 µM (inactive); in the assay with MOLT-4, 1.34 µM (inactive); in the assay on UACC-257, 4.03 µM (inactive). Also, the GI50 in the assay with A549 is 27.7 µM (inactive); in the assay on MDA-MB-435 it was 16.3 µM (inactive); in the assay on OVCAR-3, 2.61 µM (inactive); in the assay with COLO 205 it was 9.77 µM (inactive); in the assay on NCI-H226, 12.9 µM (inactive); in the assay on OVCAR-5 it was 18 µM (inactive). Moreover, the GI50 in the assay on Malme-3M was 5.38 µM (inactive).
Take `CC(=O)C(=NNc1ccc(-n2c(C)nc3ccc(Br)cc3c2=O)cc1)C(C)=O`: the GI50 was 20.7 µM (inactive) with SNB-75; > 100 µM (inactive) in the assay on EKVX; 35.8 µM (inactive) in the assay on HOP-62; 33.7 µM (inactive) in the assay on 786-0; 56.9 µM (inactive) in the assay with TK-10; > 100 µM (inactive) in the assay on NCI-H460. In addition, the GI50 was 56.4 µM (inactive) in the assay on SF-268; > 100 µM (inactive) with CCRF-CEM; > 100 µM (inactive) with T47D; > 100 µM (inactive) in the assay on MCF7; > 100 µM (inactive) with MOLT-4; > 100 µM (inactive) with UACC-257. Also, the GI50 in the assay with A549 is > 100 µM (inactive); in the assay with MDA-MB-435, > 100 µM (inactive); with OVCAR-3, > 100 µM (inactive); in the assay with COLO 205 it was > 100 µM (inactive); in the assay with NCI-H226, 72.9 µM (inactive); with OVCAR-5, > 100 µM (inactive).
For `CCOC(=O)C1(C(=O)OCC)Nc2cccnc2N(C)N1`, the GI50 was > 100 µM (inactive) in the assay on SNB-75; 35.5 µM (inactive) in the assay on HOP-62; 17.9 µM (inactive) with 786-0; 20.9 µM (inactive) with TK-10; > 100 µM (inactive) with NCI-H460; 40.6 µM (inactive) in the assay with SF-268. The GI50 is 18.5 µM (inactive) with CCRF-CEM; 20.1 µM (inactive) in the assay with T47D; 16.3 µM (inactive) in the assay on MCF7; 12.4 µM (inactive) in the assay with MOLT-4; 17.6 µM (inactive) in the assay with UACC-257; 96.8 µM (inactive) in the assay with A549. Further, the GI50 in the assay on MDA-MB-435 is 18.9 µM (inactive); in the assay on OVCAR-3 it was 20.5 µM (inactive); with COLO 205, 11.6 µM (inactive); in the assay on NCI-H226 it was 18.4 µM (inactive); in the assay on Malme-3M, 48.1 µM (inactive).
For `CCOC(=O)C1C(c2ccc3c(c2)OCO3)c2c(n[nH]c2O)CC1(O)OCC` (stereo unspecified), the GI50 in the assay with SNB-75, with EKVX, in the assay with HOP-62, with NCI-H522, in the assay with 786-0 and in the assay with TK-10 was > 100 µM (inactive) in each case. Further, the GI50 in the assay on NCI-H460, in the assay on SF-268, with CCRF-CEM, in the assay with T47D, in the assay with MCF7 and in the assay on MOLT-4 was > 100 µM (inactive) each time. The GI50 in the assay on UACC-257, in the assay with A549, in the assay on MDA-MB-435, in the assay with OVCAR-3, in the assay on COLO 205 and in the assay on OVCAR-5 was > 100 µM (inactive) each time. In addition, the GI50 in the assay with Malme-3M was > 100 µM (inactive).
Take `Nc1ncnc2c1ncn2[C@@H]1C[C@@H]1CO`: the GI50 in the assay on EKVX, with HOP-62, in the assay with NCI-H522, in the assay on 786-0, with NCI-H460 and in the assay with CCRF-CEM was > 100 µM (inactive) throughout. Besides, the GI50 in the assay on T47D, in the assay with MCF7, in the assay with MOLT-4, with UACC-257, in the assay on A549 and with MDA-MB-435 was > 100 µM (inactive) each time. In addition, the GI50 in the assay on OVCAR-3, in the assay on NCI-H226, in the assay on OVCAR-5 and in the assay on Malme-3M was > 100 µM (inactive) throughout.
With `CCOC(=O)c1nnsc1NC(=O)Nc1ccc(Cc2ccc(NC(=O)Nc3snnc3C(=O)OCC)cc2)cc1`, the GI50 in the assay with SNB-75 is 88.5 µM (inactive); with EKVX, 85.3 µM (inactive); with HOP-62, 32.7 µM (inactive); in the assay on 786-0, 18.2 µM (inactive); in the assay on TK-10, > 100 µM (inactive); with NCI-H460, 25.6 µM (inactive). The GI50 was > 100 µM (inactive) with SF-268; > 100 µM (inactive) in the assay on CCRF-CEM; 45.8 µM (inactive) in the assay on T47D; 71.8 µM (inactive) in the assay with MCF7; > 100 µM (inactive) in the assay with MOLT-4; > 100 µM (inactive) in the assay on UACC-257. For the same molecule, the GI50 is 46.1 µM (inactive) in the assay with A549; 93.1 µM (inactive) in the assay on MDA-MB-435; > 100 µM (inactive) in the assay with OVCAR-3; > 100 µM (inactive) in the assay on COLO 205; 31.9 µM (inactive) in the assay on NCI-H226; > 100 µM (inactive) in the assay on OVCAR-5. The GI50 in the assay on Malme-3M was 37.2 µM (inactive).
For the molecule `CC(C)(C)c1ccc(-c2nc3ccccc3c(=O)o2)cc1`, the GI50 with SNB-75 is 24 µM (inactive); with EKVX it was 30.7 µM (inactive); with HOP-62 it was 31.8 µM (inactive); in the assay on NCI-H522 it was 30.3 µM (inactive); in the assay on 786-0 it was 74.6 µM (inactive); in the assay with TK-10, 70.1 µM (inactive). The GI50 was 33.3 µM (inactive) in the assay with NCI-H460; 53.6 µM (inactive) with SF-268; 19.3 µM (inactive) with CCRF-CEM; 39.8 µM (inactive) in the assay on T47D; 27.7 µM (inactive) with MCF7; 20.4 µM (inactive) in the assay on MOLT-4. For the same molecule, the GI50 in the assay on UACC-257 was 81.3 µM (inactive); in the assay on A549, 27.9 µM (inactive); in the assay on MDA-MB-435 it was > 100 µM (inactive); in the assay with OVCAR-3 it was 24.5 µM (inactive); with COLO 205, 30.6 µM (inactive); with OVCAR-5 it was 44.2 µM (inactive). Also, in the assay with Malme-3M, the GI50 is 35.8 µM (inactive).
